Experimental data from patent US10123969B2, “Osmotic enhancement of drug/therapeutic delivery to the brain following infusion or injection into the cerebrospinal fluid” (Wisconsin Alumni Research Foundation, priority 2015, dated 2018).
≈ marks a conversion by molar mass, not a printed value. Where “and” joins values, the source holds several entries; their conditions need not be identical. Identical values can stand only once. Entries after “also recorded” stand apart in the source; their conditions may differ. Like-named read-outs stand apart in the source and are kept apart here. Blank lines part the entries; values can stand above or below the compound they belong to.

Tests used:
[1] = cited from earlier work
[2] = Perivascular counting of IgG signal in brain sections after intracisternal infusion with or without mannitol (ex vivo fluorescence, ImageJ); set-up: species or system rat
Method: Female Sprague-Dawley rats (180-240 g) were anesthetized to a surgical plane of anesthesia using 1.3 g/kg intraperitoneal urethane (boostered to effect), tracheotomized, and placed in a stereotaxic frame (Stoelting). Atropine (0.1 mg/kg every two hours) was given subcutaneously to reduce fluid secretion in lungs. An incision was made on the back of the neck and the muscles were dissected from the occipital bone to expose the atlanto-occipital membrane, which was retracted to reveal the dura overlying the cisterna magna. A custom cannula (˜1 cm long) made of 33 GA polyether ether ketone (PEEK, Plastics One) was connected to a Hamilton syringe controlled by an infusion pump (Quintessential Stereotaxic Injector, Stoelting) via polyethylene-10 tubing (Solomon Scientific). The tubing was prefilled with infusate (i.e., antibody solution with or without mannitol), the dura punctured with a dental needle, and the PEEK cannula immediately inserted at a 60-degree angle from the horizontal, advanced 1 mm into the cisterna magna, and sealed with cyanoacrylate.
For ex vivo fluorescence, AlexaFluor488 goat-anti-rabbit IgG in PBS (as provided) or in PBS with mannitol (described below) was infused at 1.6 uL/min for 50 minutes (80 uL total), a rate that is expected to be physiological as it is approximately half the CSF production rate and has been shown not to increase intracranial pressure in rats (Yang et al. J Trans Med 2013). The abdominal aorta was then cannulated and thirty minutes after the infusion completed the animal was perfused with ˜50 mL ice cold 0.01 M PBS followed by ˜450 mL 4% paraformaldehyde in 0.1 M phosphate buffer following a blood draw. The brain was removed and placed in 4% paraformaldehyde or phosphate buffered saline overnight, then sliced into 100 micrometer sections using a vibratome. Sections were imaged on an Olympus MVX10 using an Orca-flash 2.8 CMOS camera (Hamamatsu), a Lumen Dynamics X-Cite 120Q illuminator and an appropriate filter set (Chroma, U-M49002XL).
(§1) AlexaFluor 488 goat-anti-rabbit IgG was prepared in 0.27 M or 0.75 M mannitol in 0.01M PBS using 0.5 mL Amicon Ultra 100 kDa molecular weight cutoff centrifugal filters for buffer exchange. IgG was added to the filter and washed/spun from 0.5 mL three times with 0.27 M or 0.75 M mannitol solution (osmolality 507 mOsm/kg and 988 mOsm/kg, respectively); each spin was 10 minutes at 14,000 g. Recovery spin was 2 minutes at 1,000 g. Concentration of IgG protein (absorbance at 280 nm) was measured using a NanoDrop 2000 (Thermo Fisher), and after concentration/buffer exchange in mannitol the protein concentration was diluted to the same concentration so animals received identical amounts of IgG whether administered in provided buffer or buffer with mannitol.
To quantify perivascular signal between treatments, images were opened in ImageJ/Fiji, thresholded to eliminate background, and the Analyze Particles command was used to count and outline ‘particles’, or perivascular signal, with no restrictions on size or circularity, as well as providing additional information such as circularity, area, and average size.

[3] = Confocal imaging of cerebral internal carotid artery: IgG access to smooth muscle basement membrane; type: in vivo, rat
Method: as §1

[4] = Fluorescence imaging of spinal cord slices after intrathecal infusion of IgG with or without mannitol; type: in vivo, rat
Method: FIG. 8 (A-C). […] The spinal cord has a simple structure—an outer spinal white matter that has few blood vessels and an inner spinal gray matter which has a dense network of blood vessels.
Female Sprague-Dawley rats (180-240 g) were anesthetized to a surgical plane of anesthesia using 1.3 g/kg intraperitoneal urethane (boostered to effect), tracheotomized, and placed in a stereotaxic frame (Stoelting). Atropine (0.1 mg/kg every two hours) was given subcutaneously to reduce fluid secretion in lungs. […]
For ex vivo fluorescence, AlexaFluor488 goat-anti-rabbit IgG in PBS (as provided) or in PBS with mannitol (described below) was infused at 1.6 uL/min for 50 minutes (80 uL total), a rate that is expected to be physiological as it is approximately half the CSF production rate and has been shown not to increase intracranial pressure in rats (Yang et al. J Trans Med 2013). […]
as §1, with “IgG was added to the filter and washed/spun from 0.5 mL three times with 0.27 M or 0.75 M mannitol solution (osmolality 507 mOsm/kg and 988 mOsm/kg, respectively); each spin was 10 minutes at 14,000 g. Recovery spin was 2 minutes at 1,000 g.” left out

[5] = Osmolality of mannitol infusion solutions; type: physicochemical
Method: as §1
We have measured the osmolality of both the 0.27 M mannitol (507-564 mOsm/kg) and 0.75 M mannitol (988-1126 mOsm/kg) solutions.

[6] = hypertonic solutions, animals (Speck et al. 1988); cited from earlier work

SMILES: C[C@H](N)C(=O)O [L-Alanine]
solubility ([1]; at 25 C (Needham et al. 1971)): 1670 mM (≈ 149 mg/mL)

SMILES: N[C@@H](Cc1ccccc1)C(=O)O [L-Phenylalanine]
solubility ([1]; at 25 C (Needham et al. 1971)): 208 mM (≈ 34.4 mg/mL)

SMILES: CC(C)[C@H](N)C(=O)O [L-Valine]
solubility ([1]; at 25 C (Needham et al. 1971)): 514 mM (≈ 60.2 mg/mL)

SMILES: OC[C@@H](O)[C@@H](O[C@H]1O[C@H](CO)[C@@H](O)[C@H](O)[C@H]1O)[C@H](O)[C@@H](O)CO [Maltitol]
solubility ([1]; at 37 C (body temperature)): 5810 mM (≈ 2000 mg/mL)

SMILES: OC[C@@H](O)[C@@H](O)[C@H](O)[C@@H](O)CO [Sorbitol]
solubility in water ([1]; Merck Index): up to 83%

SMILES: O=C[C@H](O)[C@@H](O)[C@H](O)CO [Xylose]
solubility ([1]; Merck Index, temperature not given): 8320 mM (≈ 1250 mg/mL)
solubility ([1]; at 25 C (Gabas et al. 1988)): 3660 mM (≈ 549 mg/mL)

brain distribution of IgG via the perivascular spaces (in words) ([2]; 0.75 M mannitol co-infused with labeled 150 kDa IgG): dramatically greater brain distribution
number of vessels accessed by IgG (in words) ([2]; 0.75 M mannitol co-infusion vs 0.27 M mannitol co-infusion or IgG alone): significantly increased
number of vessels with perivascular signal (in words) ([2]; IgG with 0.75 M mannitol co-infusion vs single domain antibody without mannitol): significantly higher number of vessels
number of IgG perivascular profiles in spinal gray (in words) ([4]; 0.27 M mannitol co-infusion vs IgG alone): slight increase
number of perivascular spaces with IgG signal in spinal cord (in words) ([4]; 0.75 M mannitol co-infusion): striking increase
osmolality ([5]; 0.27 M mannitol solution): 507 mOsm/kg and 507-564 mOsm/kg
osmolality ([5]; 0.75 M mannitol solution): 988 mOsm/kg and 988-1126 mOsm/kg
SMILES: OC[C@@H](O)[C@@H](O)[C@H](O)[C@H](O)CO [mannitol]
perivascular access of IgG (in words) ([2]; 0.27 M mannitol co-infusion vs IgG alone (controls)): improved access; also recorded: slight increase
dose dependence of perivascular access of IgG ([2]; mannitol between 0.27 M and 0.75 M): dose-dependent manner; also recorded: dose-dependent increase
IgG access to the basement membrane of the smooth muscle layer (in words) ([3]; 0.27 M mannitol co-infusion vs IgG without mannitol): modestly increased; also recorded: no visible improvement
IgG access to the basement membrane of the smooth muscle layer (in words) ([3]; 0.75 M mannitol co-infusion vs IgG without mannitol): strikingly increased; also recorded: markedly improved; also recorded: noticeably increased
solubility ([1]; at 40 C (just above body temperature)): 2000 mM (≈ 364 mg/mL)
solubility ([1]; at 40 C (just above body temperature), listed as Mannitol): 1900 to 1940 mM
tolerability of intrathecal infusion [6]: well tolerated
